Structures can show the parent of a compound that is named as a salt.
Columns and labels:
ROS1-positive NSCLC = ROS1-positive NSCLC patients; cited from earlier work
[1] = Dynamic vapour sorption (DVS); type: physicochemical; settings: relative humidity from about 0 to about 90%, about 25° C.
Procedure: In one embodiment, the solid form is characterized by a DVS isotherm that matches the DVS isotherm depicted in FIG. 6. In one embodiment, the DVS isotherm is as measured at about 25° C.
Approximately, 10-20 mg of sample was placed into a mesh vapour sorption balance pan and loaded into a DVS Advantage dynamic vapour sorption balance by Surface Measurement Systems. The sample was subjected to a ramping profile from 40-90% relative humidity (RH) at 10% increments, maintaining the sample at each step until a stable weight had been achieved (dm/dt 0.004%, minimum step length 30 minutes, maximum step length 500 minutes) at 25° C. After completion of the sorption cycle, the sample was dried using the same procedure to 0% RH and then a second sorption cycle back to 40% RH. Two cycles were performed. The weight change during the sorption/desorption cycles were plotted, allowing for the hygroscopic nature of the sample to be determined. XRPD analysis was then carried out on any solid retained.

[2] = Stability study of Compound 1 drug substance; type: physicochemical
Procedure: A stability study is conducted for Compound 1. Samples were stored at: 30° C.±2° C./65%±5% Relative Humidity (RH), or 40° C.±2° C./75%±5% RH. At regular intervals (e.g., initial, 1, 3, 6, 9, 12, 18, 24, and 36 months), tests are performed for description, assay, related substances, water content, polymorphic form, and chiral purity.
A stability study was conducted for Compound 1 crystalline free base Form 2. Samples were stored at: (1) 30° C.±2° C./65%±5% Relative Humidity (RH), with data collected at 0, 1, 3, 6, 9, and 12 months; and (2) 40° C.±2° C./75%±5% RH, with data collected at 0, 1, 3, and 6 months. At the indicated time points, tests were performed for description, assay, related substances, water content, polymorphic form, and chiral purity.

[3] = Solubility of salts of Compound 2 and free base in distilled water (gravimetric); type: physicochemical; settings: for Solubility (mg solid/mL water): distilled water, RT, stirred 3 days, gravimetric; for XRPD Pattern Recovered: solid recovered after slurry in water at RT
Procedure: Solubility of the scaled-up salts of Compound 2 and free base Compound 2 was assessed in distilled water at RT. Approximately 30 mg of solid was weighed directly into 2 mL vials, and a 6 mm stir bar was added to each vial. Water was then incrementally added to the vials (starting with 1 vol.) and the resulting slurries were left to stir for 10-15 min prior to the next addition. As all solids remained in slurries upon the addition of 1 mL of water, the gravimetric method was adopted, and the vials were stirred at RT for 3 days before centrifuging. Supernatant solutions were recovered and evaporated to dryness at 50° C. in atmosphere on a hot plate, then placed at 50° C. under vacuum (˜−29 inHg) for 3 h before final weighing.

[4] = Solid-form stability study of salts of Compound 2 (75% RH, 40° C., 7 days); type: physicochemical; settings: for Purity (%) After / Purity (%) Before: HPLC; for Purity (%) After / XRPD Pattern After: after 7 days at 75% RH and 40° C.; for Purity (%) Before: before stress test
Procedure: Solid-form stability studies were completed by weighing approximately 30 mg each of Form A of the camsylate, esylate, mesylate, and sulfate salts of Compound 2 into 4 mL vials and covering with a Kimwipe. The vials were placed inside a humidity chamber set to 75% RH at 40° C. for 7 days. The HPLC and XRPD data was collected to confirm the purity and identity of the solid forms. The four salts were physically and chemically stable. No decrease in purity (i.e. less than 0.1%) or form change was observed after a seven-day stress test at 75% relative humidity (RH) and 40° C. (Table 5).

[5] = Salt screen of Compound 2: XRPD after drying and humidification; settings: vacuum 50° C. at least 3 h, >95% RH overnight
[6] = Solvent solubility screen; type: physicochemical; settings: organic solvent or mixture, thermodynamic from solid; majority of the solvents investigated
Source text: Solids were recovered from these solutions by the addition of anti-solvent to give an indication of solid form, with Form 2 predominantly observed.

Solubility (mg solid/mL water) [3] [mg solid/mL water]	XRPD Pattern Recovered [3]	Purity (%) After [4] [%]	Purity (%) Before [4] [%]	XRPD Pattern After [4]	Stability of crystalline salt pattern to drying and humidification [5]	SMILES	also measured
						C[C@@H](Oc1cc(-c2cnn(C3CCNCC3)c2)cnc1N)c1c(Cl)ccc(F)c1Cl [Crizotinib]	Median progression-free survival (ROS1-positive NSCLC): 9-19 months
						CCn1nc(Cl)c2c1-c1cnc(N)c(c1)O[C@H](C)c1cc(F)ccc1-c1nn(C)cc1C2 [Form 2]	DVS weight increase [1]: about 0.3%; Chemical and physical stability (description, assay, related substances, polymorphic form, chiral purity) ([2]; 30° C.±2° C./65%±5% RH, 12 months (Example 21)): no meaningful change; Chemical and physical stability (description, assay, related substances, polymorphic form, chiral purity) ([2]; 40° C.±2° C./75%±5% RH, 6 months (Example 21)): no meaningful change
8	Form A	99.94	99.92	Form A	stable to drying and humidification	CCn1cc(Cc2cn(C)nc2-c2ccc(F)cc2[C@@H](C)Oc2cc(Br)cnc2N)c(Cl)n1 [Mesylate Salt]	
<3	Form A	99.97	99.97	Form A	stable to drying and humidification	CCn1cc(Cc2cn(C)nc2-c2ccc(F)cc2[C@@H](C)Oc2cc(Br)cnc2N)c(Cl)n1 [Sulfate Salt]	
						CCn1nc(Cl)c2c1-c1cnc(N)c(c1)O[C@H](C)c1cc(F)ccc1-c1nn(C)cc1C2 [lyophilized material]	solubility [6]: > 150 mg/mL

— patent publication US20230322797A1, “SOLID FORMS, PHARMACEUTICAL COMPOSITIONS AND PREPARATION OF HETEROAROMATIC MACROCYCLIC ETHER COMPOUNDS” (Nuvalent, Inc., priority 2022, published 2023)
